Data as given in patent US20130217592A1, “ARRAYS AND METHODS COMPRISING M. SMITHII GENE PRODUCTS” (THE WASHINGTON UNIVERSITY, priority 2007, published 2013).

Columns and labels:
[1] = tested on: Bacteroides thetaiotaomicron; assay: Effect of statins on growth of B. thetaiotaomicron (FIG. 14); assay type: cell-based; conditions: statin concentration of 1 mM (FIG. 14)
[2] = tested on: M. smithii strains DSMZ 861 (PS), 2374 (F1), 2375 (ALI) and 11975 (B181); assay: Statin susceptibility of M. smithii strains in the PHAT system, 96-well plates, growth by optical density at 600 nm (all four strains); assay type: cell-based, Methanobrevibacter smithii; conditions: preliminary results
Procedure: A system for culturing M. smithii in 96-well plate format was designed and constructed in the following manner (See FIG. 15). Three stainless steel paint canisters (Binks, 83S-210, 2 gallon size) were modified for incubation of plates at 37° C. in an oxygen-free gas mix of 20% CO2/80% H2 at a pressure of 30 psi, where all of these growth parameters can be monitored and recorded.
The canisters are heated using Electro-Flex Heat brand Pail Heaters controlled by a custom designed controller consisting of a 16A2120 temperature/process control (Love Controls), an RTD (resistance temperature detector) probe to measure internal tank temperature, and several safety features to prevent overheating or burns.
The system is pressurized with oxygen-free gas that has flowed through a custom-built oxygen scrub. Commercially available gas mixes used for culturing M. smithii contain trace levels of oxygen that would kill the organism: thus, the gas mixture must be passed through an oxygen scrub. This scrub consists of a glass tube filled with copper mesh that is heated to 350° C. with heating tape (HTS/Amptek Duo-Tape), controlled by a benchtop power controller (HTS/Amptek BT-Z). The oxygen scrub is covered with insulating tape and secured behind a heat resistant polyetherimide case. Pressure in each tank is measured and recorded with a digital manometer (LEO record, Omni Instruments).
The system is housed inside an anaerobic chamber (COY laboratories) to allow inspection and manipulation of cultures and plates without exposing M. smithii to oxygen. Each tank can house 30 standard volume 96-well plates, which can be analyzed inside the COY anaerobic chamber with a microplate reader (BioRad) that monitors growth by measuring optical density.
1.5 μl of the stock solutions were added to wells in 96-well plates and transferred to the COY anaerobic chamber where they were kept for at least 24 hours to become anaerobic. 150 microliters of actively growing Methanobrevibacter smithii cultures were then added to each well (excluding medium+drug blanks) to bring the drug concentrations to 1 mM, 100 μM and 10 μM, respectively. The plates were incubated in the newly developed pressurized heated anaerobic tank system in a 4:1 mixture of oxygen-scrubbed H2 and CO2 at a pressure of 30 psi. Cultures grown in 1% ethanol, methanol and DMSO were used as controls. Growth was measured by determining optical density at 600 nm using the BioRad microplate reader (model 680).
Each condition was tested in triplicate with the average measurement plotted.

In the case of `CC(C)c1c(C(=O)Nc2ccccc2)c(-c2ccccc2)c(-c2ccc(F)cc2)n1CC[C@@H](O)C[C@@H](O)CC(=O)O` [atorvastatin], the “effect on the growth of Bacteroides thetaiotaomicron” value [1] is reported as “None of these three statins had any affect on the growth”, the “inhibition of growth of M. smithii strains” value (shortened to “inhibition”) ([2]; 1 millimolar) is reported as “inhibit all strains tested” and the “inhibition” value ([2]; 100 micromolar) is reported as “inhibit all strains”.
`CC(C)c1nc(N(C)S(C)(=O)=O)nc(-c2ccc(F)cc2)c1/C=C/[C@@H](O)C[C@@H](O)CC(=O)O` [rosuvastatin] was tested, and the “effect on the growth of Bacteroides thetaiotaomicron” value [1] was “None of these three statins had any affect on the growth”, the “inhibition” value ([2]; 1 millimolar) was “inhibit all strains tested” and the “inhibition” value ([2]; 100 micromolar) was “inhibit all strains”.
